# Source: patent US20060223831A1, “Bromide and its crystal” (priority 2003, published 2006)
# Key:
# [1] = Stability test (40° C., 75% R.H., 3 months); type: physicochemical; details: for Storage stability: 3 months at 40° C. under a relative humidity of 75%
# Procedure: Samples were stored under shade for 3 months in a constant temperature constant moisture vessel of 40° C. and 75% R.H. The purity of each sample before storage and after storage was measured using HPLC, and change of crystal form was measured by powder X-ray diffraction. In addition, as a comparative example, crystals of the chloride were stored for 3 months under the same conditions, and amount of an impurity a (a compound in which the imidazolium ring was ring-opened) was measured. [table]
# [2] = Evaluation of hygroscopic property (storage in humidity-adjusted desiccators); type: physicochemical; details: for HPLC purity change / degradation due to storage: 7 days of storage, ca. 0 to 93% R.H.; for Hygroscopic property: conclusion from storage at ca. 0 to 93% R.H.
# Procedure: About 0.5 g of each of the α- form Crystals and β- form Crystals of the bromide obtained in Example 2 was put into a weighing bottle of known mass and, after precisely calculating its mass, preserved under the following storage condition at 25° C. to measure changes in the mass.
# Storage condition: A desiccator adjusted to a humidity of about 0% R.H. (silica gel), 33% R.H. (saturated MgCl2.6H2O aqueous solution), 51% R.H. (saturated Ca(NO3)2 aqueous solution), 75% R.H. (saturated NaCl aqueous solution), or 93% R.H. (saturated KNO3 aqueous solution).
# i) Moisture absorption (dehydrated amount): By taking out each sample after 7 days of the storage, the weight change was precisely measured and recorded to calculate amount of the absorbed moisture.
# ii) Appearance verification: Appearance of the powder was verified with the naked eye and using a magnifying lens.
# iii) Powder X-ray diffraction measurement: Powder X-ray diffraction patterns of samples before storage and after completion of the storage period were recorded by a powder X-ray diffraction device.
# iv) HPLC purity: Detection of degraded products in the samples before storage and after completion of the storage period was carried out using HPLC to measure purity.
# (HPLC conditions) Mobile phase: 0.1% trifluoroacetic acid aqueous solution/acetonitrile=9:2, column: TSKgel ODS 80TsQA, 4.6×150 mm, particle diameter 5 μm (mfd. by Tosoh), flow rate: 1 ml/min, column temperature: 40° C., detection: UV 260 nm
# [3] = Water absorption/desorption behavior (moisture equilibrium measuring device SGA-X100); type: physicochemical
# Procedure: Water absorption/desorption behavior of the bromide (β- form Crystal) and the chloride obtained in Reference Example as a comparative compound was measured using a moisture equilibrium measuring device SGA-X100 (VTI) under conditions of temperature: 25° C., measuring range: relative humidity of from 5 to 95%, and measuring interval: 5%.
# tumor = details: cf. page 22 of WO 01/60803; cited from earlier work
# [4] = cf. page 22 of WO 01/60803; cited from earlier work
# [5] = after storage, 3 months, 40° C., 75% R.H., under shade
# [6] = 93% R.H. storage, 25° C., 7 days
# [7] = other conditions (ca. 0 to 75% R.H.), 25° C., 7 days
# [8] = all conditions (ca. 0 to 93% R.H.), 25° C., 7 days
smiles,measurement,setting,value
"COCCn1c2c([n+](Cc3cnccn3)c1C)C(=O)c1ccccc1C2=O.[Br-] [α-form Crystal, 1-(2-methoxyethyl)-2-methyl-4,9-dioxo-3-(pyrazin-2-ylmethyl)-4,9-dihydro-1H-naphtho[2,3-d]imidazol-3-ium bromide]",Storage stability,[1],degradation due to the storage was not observed
same,Storage stability,[1]; listed as α- form Crystals,stable
same,HPLC purity (%),[1]; [5],99.92%
same,Powder X-ray diffraction pattern,[1]; [5],β-form
same,HPLC purity (%),[1]; before storage,99.91%
same,Powder X-ray diffraction pattern,[1]; before storage,α-form
same,Weight change (%),"[2]; 33% R.H., 25° C., 7 days, listed as α-form Crystals",−0.02%
same,HPLC purity (%),"[2]; 33% R.H., 25° C., after 7 days of storage, listed as α-form Crystals",99.89%
same,Weight change (%),"[2]; 51% R.H., 25° C., 7 days, listed as α-form Crystals",−0.04%
same,HPLC purity (%),"[2]; 51% R.H., 25° C., after 7 days of storage, listed as α-form Crystals",99.89%
same,Weight change (%),"[2]; 75% R.H., 25° C., 7 days, listed as α-form Crystals",0.13%
same,HPLC purity (%),"[2]; 75% R.H., 25° C., after 7 days of storage, listed as α-form Crystals",99.88%
same,Appearance verification,[2]; [6],change from reddish yellow to yellow
same,Powder X-ray diffraction pattern after storage,[2]; [6],transitioned to β- form Crystals
same,Weight loss,[2]; [6],About 1%
same,Weight change (%),"[2]; 93% R.H., 25° C., 7 days, listed as α-form Crystals",−0.94%
same,HPLC purity (%),"[2]; 93% R.H., 25° C., after 7 days of storage, listed as α-form Crystals",99.89%
same,HPLC purity change / degradation due to storage,[2]; 25° C.,the purity was not decreased
same,HPLC purity (%),"[2]; before storage, listed as α-form Crystals",99.93%
same,Weight change (%),"[2]; ca. 0% R.H. (silica gel), 25° C., 7 days, listed as α-form Crystals",−0.10%
same,HPLC purity (%),"[2]; ca. 0% R.H., 25° C., after 7 days of storage, listed as α-form Crystals",99.72%
same,Hygroscopic property,[2]; 25° C.,no hygroscopic property
same,Appearance verification,[2]; [7],No changes were found
same,Powder X-ray diffraction pattern after storage,[2]; [7],No changes were found
"COCCn1c2c([n+](Cc3cnccn3)c1C)C(=O)c1ccccc1C2=O.[Br-] [β-form Crystal, 1-(2-methoxyethyl)-2-methyl-4,9-dioxo-3-(pyrazin-2-ylmethyl)-4,9-dihydro-1H-naphtho[2,3-d]imidazol-3-ium bromide]",Storage stability,[1],very stable physically and chemically
same,Storage stability,[1]; listed as β- form Crystals,stable
same,HPLC purity (%),[1]; [5],99.71%
same,Powder X-ray diffraction pattern,[1]; [5],β-form
same,HPLC purity (%),[1]; before storage,99.71%
same,Powder X-ray diffraction pattern,[1]; before storage,β-form
same,Hygroscopic property,"[3]; 25° C., humidity range of from 5 to 95%",not found
same,Weight change (%),"[2]; 33% R.H., 25° C., 7 days, listed as β-form Crystals",0.02%
same,HPLC purity (%),"[2]; 33% R.H., 25° C., after 7 days of storage, listed as β-form Crystals",99.73%
same,Weight change (%),"[2]; 51% R.H., 25° C., 7 days, listed as β-form Crystals",0.04%
same,HPLC purity (%),"[2]; 51% R.H., 25° C., after 7 days of storage, listed as β-form Crystals",99.72%
same,Weight change (%),"[2]; 75% R.H., 25° C., 7 days, listed as β-form Crystals",0.06%
same,HPLC purity (%),"[2]; 75% R.H., 25° C., after 7 days of storage, listed as β-form Crystals",99.71%
same,Weight change (%),"[2]; 93% R.H., 25° C., 7 days, listed as β-form Crystals",0.08%
same,HPLC purity (%),"[2]; 93% R.H., 25° C., after 7 days of storage, listed as β-form Crystals",99.71%
same,HPLC purity change / degradation due to storage,[2]; 25° C.,the purity was not decreased
same,Appearance verification,[2]; [8],No changes were found
same,Powder X-ray diffraction pattern after storage,[2]; [8],did not change
same,Weight change,"[2]; all of the moisture adjustment conditions, 25° C., 7 days",Significant weight change was not found
same,HPLC purity (%),"[2]; before storage, listed as β-form Crystals",99.72%
same,Weight change (%),"[2]; ca. 0% R.H. (silica gel), 25° C., 7 days, listed as β-form Crystals",0.01%
same,HPLC purity (%),"[2]; ca. 0% R.H., 25° C., after 7 days of storage, listed as β-form Crystals",99.73%
same,Hygroscopic property,[2]; 25° C.,no hygroscopic property
"COCCn1c2c([n+](Cc3cnccn3)c1C)C(=O)c1ccccc1C2=O.[Br-] [bromide, 1-(2-methoxyethyl)-2-methyl-4,9-dioxo-3-(pyrazin-2-ylmethyl)-4,9-dihydro-1H-naphtho[2,3-d]imidazol-3-ium bromide]",Hygroscopic property,[2]; 25° C.,no hygroscopic property
"COCCn1c2c([n+](Cc3cnccn3)c1C)C(=O)c1ccccc1C2=O [chloride, 1-(2-methoxyethyl)-2-methyl-4,9-dioxo-3-(pyrazin-2-ylmethyl)-4,9-dihydro-1H-naphtho[2,3-d]imidazol-3-ium chloride]",Storage stability,[1],low
same,Impurity a (%) (imidazolium ring-opened compound),[1]; [5],2.45%
same,Impurity a (%) (imidazolium ring-opened compound),[1]; before storage,0.64%
same,Weight gain on forming monohydrate,"[3]; 25° C., 65% R.H. to 80% R.H.",4.3%
same,Relative humidity causing deliquescence,"[3]; 25° C., absorption",≥ 85 % R.H.
same,Relative humidity below which hydrate returned to anhydride,"[3]; 25° C., at the time of drying, hydration state stable up to 25% R.H.",< 25 % R.H.
same,Heating temperature returning hydrate to anhydride,[3]; slight heating,≥ 25 °C
same,in vivo tumor growth inhibitory activity,tumor,good
same,toxicity,[4],low
